Measurements taken from the supplement of paper PMC10307832.

Legend:
Assay in all cases: relative viability (nuclei count vs DMSO), 5 days (fraction); higher = more cells survive
[1] = compound: Cc1ccc(C(=O)Nc2ccc(CN3CCN(C)CC3)c(C(F)(F)F)c2)cc1C#Cc1cnc2cccnn12 [Ponatinib] + C[C@]1(O)C[C@@H](c2nc(-c3ccc4ccc(-c5ccccc5)nc4c3)c3c(N)nccn32)C1 [Linsitinib] (partner 1 µM)
Outline: (§1)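 After 5 days of treatment, lung cancer cells in 1536-well plates were fixed and stained in a single step (final 0.05% Triton X-100, 1% formaldehyde, 1 ug/ml Hoechst) and their nuclei counted on 4× images. Treatment had been applied by pin tool the day after seeding as one drug alone or as a fixed anchor-drug dose with five library-drug doses (not always all listed) in √10 steps. Relative viability is the nuclei count of treated wells divided by that of vehicle wells, and values are medians of duplicate plates.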

[2] = compound: Cc1ccc(C(=O)Nc2ccc(CN3CCN(C)CC3)c(C(F)(F)F)c2)cc1C#Cc1cnc2cccnn12 [Ponatinib] + Nc1nc2[nH]cc(CCc3ccc(C(=O)N[C@@H](CCC(=O)O)C(=O)O)cc3)c2c(=O)[nH]1 [Pemetrexed] (partner 0.2 µM)
Outline: as §1

[3] = compound: Cc1ccc(C(=O)Nc2ccc(CN3CCN(C)CC3)c(C(F)(F)F)c2)cc1C#Cc1cnc2cccnn12 [Ponatinib] + Cc1nc(Nc2ncc(C(=O)Nc3c(C)cccc3Cl)s2)cc(N2CCN(CCO)CC2)n1 [Dasatinib] (partner 0.075 µM)
Outline: as §1

[4] = compound: Cc1ccc(Nc2nccc(N(C)c3ccc4c(C)n(C)nc4c3)n2)cc1S(N)(=O)=O [Pazopanib] + CS(=O)(=O)CCNCc1ccc(-c2ccc3ncnc(Nc4ccc(OCc5cccc(F)c5)c(Cl)c4)c3c2)o1 [Lapatinib] (partner 2 µM)
Outline: as §1

Cell Line | relative viability ([1]; first compound 0.002 µM) | relative viability ([1]; first compound 0.006325 µM) | relative viability ([1]; first compound 0.06325 µM) | relative viability ([1]; first compound 0.2 µM) | relative viability ([2]; first compound 0.002 µM) | relative viability ([2]; first compound 0.006325 µM) | relative viability ([2]; first compound 0.06325 µM) | relative viability ([2]; first compound 0.2 µM) | relative viability ([3]; first compound 0.002 µM) | relative viability ([3]; first compound 0.006325 µM) | relative viability ([3]; first compound 0.06325 µM) | relative viability ([3]; first compound 0.2 µM) | relative viability ([4]; first compound 0.01 µM) | relative viability ([4]; first compound 0.03162 µM) | relative viability ([4]; first compound 0.1 µM) | relative viability ([4]; first compound 0.3162 µM) | relative viability ([4]; first compound 1 µM)
NCI-H2087 | 0.632 | 0.761 | 0.761 | 0.893 | 0.673 | 0.648 | 0.657 | 0.579 | 0.83 | 0.743 | 0.798 | 0.525 | 1.09 | 0.988 | 0.99 | 1.15 | 1.02
BEN | 0.858 | 0.985 | 0.846 | 0.87 | 0.678 | 0.718 | 0.749 | 0.767 | 0.255 | 0.279 | 0.257 | 0.311 | – | 0.574 | 0.721 | 0.808 | 0.774
EKVX | 0.927 | 1.04 | 1.24 | 1.02 | 0.382 | 0.493 | 0.427 | 0.374 | 0.56 | 0.624 | 0.502 | 0.483 | 0.183 | 0.213 | 0.231 | 0.344 | 0.297
LXF-289 | 0.936 | 0.959 | 0.992 | 0.933 | 0.74 | 0.846 | 0.982 | 0.891 | 0.26 | 0.275 | 0.26 | 0.195 | 0.908 | 0.935 | 0.902 | 0.909 | 0.897
NCI-H661 | 0.54 | 0.598 | 0.692 | 0.565 | 0.965 | 0.968 | 0.932 | 0.87 | 0.786 | 0.965 | 0.987 | 0.819 | 0.538 | 0.629 | 0.476 | 0.431 | 0.648
NCI-H2085 | 0.831 | 0.831 | 1.09 | 0.741 | 0.852 | 0.894 | 1.04 | 0.874 | 0.268 | 0.261 | 0.221 | 0.237 | 0.511 | 0.794 | 0.762 | 0.785 | 0.853
NCI-H1944 | 1.14 | 1.29 | 1.41 | 1.22 | 0.631 | 0.662 | 0.676 | 0.719 | 0.218 | 0.21 | 0.221 | 0.202 | 0.561 | 0.84 | 0.949 | 0.923 | 0.953
LC-2-ad | 0.802 | 0.728 | 0.644 | 0.555 | 0.274 | 0.272 | 0.296 | 0.263 | 0.286 | 0.298 | 0.313 | 0.256 | 1.01 | 0.954 | 0.999 | 0.979 | 1.12
COR-L 105 | 0.944 | 0.875 | 1.39 | 1.04 | 1.09 | 1.07 | 1.25 | 1.04 | 0.314 | 0.41 | 0.344 | 0.341 | 0.342 | 0.414 | 0.386 | 0.341 | 0.401
NCI-H1355 | 0.833 | 0.916 | 1.08 | 0.947 | 0.983 | 0.975 | 1.14 | 1.07 | 0.651 | 0.714 | 0.81 | 0.668 | – | 0.845 | 0.93 | 0.989 | 1.17
H3255 | 0.849 | 0.951 | 1.06 | 0.885 | 0.527 | 0.607 | 0.614 | 0.546 | 0.326 | 0.317 | 0.387 | 0.367 | 0.203 | 0.26 | 0.248 | 0.285 | 0.256
NCI-H1993 | 0.761 | 0.763 | 0.742 | 0.819 | 0.691 | 0.62 | 0.573 | 0.678 | 0.684 | 0.661 | 0.832 | 0.603 | 0.69 | 0.853 | 0.573 | 0.797 | 0.927
NCI-H1734 | 0.792 | 0.864 | 1 | 0.754 | 0.394 | 0.399 | 0.44 | 0.395 | 0.496 | 0.469 | 0.42 | 0.377 | 0.837 | 0.777 | 1.13 | 1.18 | 1.09
HOP-62 | 0.902 | 0.663 | 0.868 | 0.773 | 0.268 | 0.33 | 0.276 | 0.304 | 0.6 | 0.607 | 0.819 | 0.6 | 1.04 | 1.01 | – | 0.99 | 1.04
LOU-NH91 | 0.995 | 0.966 | 0.977 | 0.942 | 0.335 | 0.421 | 0.463 | 0.415 | 0.541 | 0.581 | 0.548 | 0.525 | 0.646 | 0.744 | 0.748 | 0.759 | 0.872
NCI-H2228 | 0.652 | 0.711 | 0.874 | 0.73 | 0.382 | 0.339 | 0.358 | 0.306 | 0.372 | 0.515 | 0.462 | 0.393 | 1.32 | 1.15 | 0.979 | 1.08 | 0.929
PC-3 [JPC-3] | 0.981 | 0.984 | 0.992 | 0.956 | – | 1.09 | 1.12 | 1.1 | 0.99 | 0.981 | 1.12 | 0.917 | 0.367 | 0.463 | 0.493 | 0.468 | 0.451
